In patent publication EP1561465A2, “Methods of use of fluoroquinolone compounds against bacteria” (LG Life Sciences, Ltd., priority 1999, dated 2001):
Values after ≈ are worked out from the molar mass of the structure shown. Where two headings read alike, the source gives them in different places.

Assays:
[1] = system: Streptococcus pneumoniae; experiment: MIC by agar dilution (NCCLS), 411 isolates Buenos Aires 1998-99; type: cell-based; conditions: S. pneumoniae
[2] = system: Salmonella spp.; experiment: MIC by agar dilution (NCCLS M7-A4), 288 enteropathogenic isolates, gemifloxacin and 15 other antimicrobials; type: cell-based; conditions: for MIC: Salmonella
[3] = system: Campylobacter jejuni; experiment: as above
[4] = system: Enterobacter spp.; experiment: MIC by agar dilution (NCCLS), 322 nosocomial Gram negative isolates, Athens 1998; type: cell-based
[5] = system: Enterococcus faecalis; experiment: MIC by agar macrodilution (NCCLS), 373 Gram positive isolates, Athens 1998; type: cell-based; conditions: for MIC50: read-out: MIC50
[6] = system: Hafnia alvei; experiment: MIC by agar dilution (NCCLS M7-A4), 288 enteropathogenic isolates, gemifloxacin and 15 other antimicrobials; type: cell-based; conditions: for MIC: Hafnia alvei N= 32
[7] = system: Yersinia enterocolitica; experiment: as above; type: cell-based; conditions: for MIC: Yersinia enterocolitica N= 22
[8] = system: Shigella spp.; experiment: as above; type: cell-based; conditions: for MIC: Shigella
Description: [A. hydrophila (12), and A. sobria (4)], and 91 Campylobacter jejuni. […] The strains were stored in skimmed-milk at -80 °C until studied.
The plates were incubated aerobically at 35 °C for 24 h, except for Campylobacter jejuni, where a microaerophilic atmosphere was obtained by using Campy Pack (Becton Dickinson, Cockeysville, MD, USA), and incubation was for 48 h. All organisms were tested with an inoculum of ≅ 10^4 cfu/spot. MICs were defined as the lower antibiotic concentration with no visible growth.

[9] = system: Aeromonas spp.; experiment: as above; type: cell-based; conditions: Aeromonas spp. N= 16
[10] = number of isolates at MIC […], n = 81
[11] = number of isolates with MIC […], 14 isolates
[12] = Campylobacter jejuni, read-out: MIC (mg/L) 50%
[13] = Campylobacter jejuni, read-out: MIC (mg/L) 90%
[14] = 24 h, read-out: MIC (mg/L) Range

co-trimoxazole
MIC90 ([1]; Penicillin intermediate (n = 17)): 8 µg/mL
MIC90 ([1]; Penicillin resistant (n = 4)): >16 µg/mL
MIC90 ([1]; Penicillin susceptible (n = 69)): 8 µg/mL
Rates of non-susceptible microorganisms ([2]; Salmonella spp.): 4%
isolates being resistant ([2]; Salmonella spp.): 4%
isolates being resistant ([3]; C. jejuni): 4%

CC(C)(O/N=C(\C(=O)N[C@@H]1C(=O)N2C(C(=O)[O-])=C(C[n+]3ccccc3)CS[C@H]12)c1csc(N)n1)C(=O)O [Cetfazidime]
MIC50 ([4]; Enterobacter): 1 µg/mL
MIC90 ([4]; Enterobacter): > 64 µg/mL
MIC distribution (µg/ml) 0.06 ([4]; {}): 1
MIC distribution (µg/ml) 0.25 ([4]; {}): 16
MIC distribution (µg/ml) 0.5 ([4]; {}): 3
MIC distribution (µg/ml) 1 ([4]; {}): 2
MIC distribution (µg/ml) 2 ([4]; {}): 1
MIC distribution (µg/ml) 4 ([4]; {}): 0
MIC distribution (µg/ml) 8 ([4]; {}): 2
MIC distribution (µg/ml) 16 ([4]; {}): 6
MIC distribution (μg/ml) 32 ([4]; {}): 3
MIC distribution (μg/ml) 64 ([4]; {}): 2

CC[C@H]1OC(=O)[C@H](C)[C@@H](O[C@H]2C[C@@](C)(OC)[C@@H](O)[C@H](C)O2)[C@H](C)[C@@H](O[C@@H]2O[C@H](C)C[C@H](N(C)C)[C@H]2O)[C@](C)(O)C[C@@H](C)C(=O)[C@H](C)[C@@H](O)[C@]1(C)O [erythromycin]
MIC50 ([5]; Enterococcus faecalis, continuation of the preceding table (title not shown), 14 isolates): ≥ 32 µg/mL
MIC50 ([5]; Enterococcus faecalis, n = 81 isolates): 8 µg/mL (≈ 10.9 µM)
MIC90 ([5]; Enterococcus faecalis, n = 81 isolates, read-out: MIC90): ≥ 32 µg/mL
MIC90 ([5]; continuation of the preceding table (title not shown), 14 isolates): ≥32 µg/mL
MIC distribution (µg/ml) 0.03 ([5]; number of isolates at MIC 0.03 µg/ml, n = 81): 0
MIC distribution (µg/ml) 0.06 ([5]; number of isolates at MIC 0.06 µg/ml, n = 81): 0
MIC distribution (µg/ml) 0.5 ([5]; number of isolates at MIC 0.5 µg/ml, n = 81): 1
MIC distribution (µg/ml) 1 ([5]; number of isolates at MIC 1 µg/ml, n = 81): 2
MIC distribution (µg/ml) 2 ([5]; number of isolates at MIC 2 µg/ml, n = 81): 12
MIC distribution (µg/ml) 4 ([5]; number of isolates at MIC 4 µg/ml, n = 81): 16
MIC distribution (µg/ml) 8 ([5]; number of isolates at MIC 8 µg/ml, n = 81): 4
MIC distribution (µg/ml) 16 ([5]; number of isolates at MIC 16 µg/ml, n = 81): 1
MIC distribution (µg/ml) 0.125 [5, 10]: 1
MIC distribution (µg/ml) 0.25 [5, 10]: 1
MIC distribution (µg/ml) ≤0.015 ([5]; number of isolates at MIC ≤[…], n = 81): 0
MIC distribution (µg/ml) ≥32 ([5]; number of isolates at MIC ≥32 µg/ml, n = 81): 39
MIC distribution (µg/ml) 0.03 ([5]; number of isolates with MIC 0.03 µg/ml, 14 isolates): 0
MIC distribution (µg/ml) 0.06 ([5]; number of isolates with MIC 0.06 µg/ml, 14 isolates): 0
MIC distribution (µg/ml) 0.5 ([5]; number of isolates with MIC 0.5 µg/ml, 14 isolates): 0
MIC distribution (µg/ml) 1 ([5]; number of isolates with MIC 1 µg/ml, 14 isolates): 0
MIC distribution (µg/ml) 2 ([5]; number of isolates with MIC 2 µg/ml, 14 isolates): 2
MIC distribution (µg/ml) 4 ([5]; number of isolates with MIC 4 µg/ml, 14 isolates): 2
MIC distribution (µg/ml) 8 ([5]; number of isolates with MIC 8 µg/ml, 14 isolates): 1
MIC distribution (µg/ml) 16 ([5]; number of isolates with MIC […] µg/ml, 14 isolates): 0
MIC distribution (µg/ml) 0.125 [5, 11]: 0
MIC distribution (µg/ml) 0.25 [5, 11]: 0
MIC distribution (µg/ml) ≤0.015 ([5]; number of isolates with MIC ≤[…], 14 isolates): 0
MIC distribution (µg/ml) ≥32 ([5]; number of isolates with MIC ≥[…] µg/ml, 14 isolates): 9
isolates inhibited by a concentration ≤0.5 mg/l ([3]; C. jejuni): 77%
concentration inhibiting all the other isolates ([3]; C. jejuni isolates other than the highly resistant strain): ≤ 4 mg/L
MIC ([3]; Campylobacter jejuni): 128 mg/L (≈ 174 µM)
MIC [3, 12]: 0.5 mg/L (≈ 0.681 µM)
MIC [3, 13]: 1 mg/L (≈ 1.36 µM)

C[C@H]1c2cccc(O)c2C(=O)C2=C(O)[C@]3(O)C(=O)C(C(N)=O)=C(O)[C@@H](N(C)C)[C@@H]3[C@@H](O)[C@@H]21 [Doxycycline, doxycycline]
Rates of non-susceptible microorganisms ([2]; Salmonella spp.): 22%
MIC (mg/L) Range ([2]; Salmonella spp. N= 106): 1 to 128 mg/L
MIC ([2]; read-out: MIC (mg/L) 50%, Salmonella spp. N= 106): 2 mg/L (≈ 4.5 µM)
MIC ([2]; read-out: MIC (mg/L) 90%, Salmonella spp. N= 106): 16 mg/L (≈ 36 µM)
MIC [6, 14]: 1 to 16 mg/L (≈ 2.25 to 36 µM)
Rates of non-susceptible microorganisms ([6]; Hafnia alvei): 22%
MIC ([6]; read-out: MIC (mg/L) 50%): 2 mg/L (≈ 4.5 µM)
MIC ([6]; read-out: MIC (mg/L) 90%): 8 mg/L (≈ 18 µM)
MIC [7, 14]: 0.25 to 8 mg/L (≈ 0.563 to 18 µM)
Rates of non-susceptible microorganisms ([7]; Yersinia enterocolitica): 5%
MIC ([7]; read-out: MIC (mg/L) 50%): 1 mg/L (≈ 2.25 µM)
MIC ([7]; read-out: MIC (mg/L) 90%): 2 mg/L (≈ 4.5 µM)
Rates of non-susceptible microorganisms ([8]; Shigella spp.): 43%
MIC [8, 14]: 0.5 to 32 mg/L (≈ 1.13 to 72 µM)
MIC ([8]; read-out: MIC (mg/L) 50%): 16 mg/L (≈ 36 µM)
MIC ([8]; read-out: MIC (mg/L) 90%): 32 mg/L (≈ 72 µM)
MIC (mg/L) Range [9]: 0.25 to 4 mg/L
MIC ([9]; read-out: MIC (mg/L) 50%): 0.5 mg/L (≈ 1.13 µM)
MIC ([9]; read-out: MIC (mg/L) 90%): 2 mg/L (≈ 4.5 µM)
Rates of non-susceptible microorganisms ([3]; Campylobacter jejuni): 40%
MIC (mg/L) Range ([3]; Campylobacter jejuni N= 91): 0.06 to 64 mg/L
MIC [3, 12]: 16 mg/L (≈ 36 µM)
MIC [3, 13]: 32 mg/L (≈ 72 µM)
